Laboratory results reported in ChEMBL document CHEMBL1126407, “-Lactam peptides as potential inhibitors of the HIV gp120-CD4 interaction” (Bioorg Med Chem Lett, 1992).
Calls of active or inactive are those of the source. The calls are words filed in the database; no cut-off is given here.

Assays:
[1] = biological target: Envelope glycoprotein gp160 (Human immunodeficiency virus type 1 group M subtype B (isolate HXB2)(HIV-1)) (UniProt P04578); test: Tested for inhibition of HIV CD4-gp120 interaction in an ELISA based binding assay using recombinant gp120 and soluble CD4 up to a concentration of 350 uM; No inhibition
[2] = biological target: Envelope glycoprotein gp160 (Human immunodeficiency virus type 1 group M subtype B (isolate HXB2)(HIV-1)) (UniProt P04578); test: Tested for inhibition of HIV CD4-gp120 interaction in an ELISA based binding assay using recombinant gp120 and soluble CD4 up to a concentration of 550 uM; No inhibition
[3] = biological target: Envelope glycoprotein gp160 (Human immunodeficiency virus type 1 group M subtype B (isolate HXB2)(HIV-1), UniProt P04578); test: Tested for inhibition of HIV gp120-CD4 interaction in an ELISA based binding assay using recombinant CD4-gp120

Structure (SMILES)	inhibition [1]	also measured
CC(C)C[C@H](NC(=O)[C@H](Cc1ccccc1)NC(=O)[C@H]1/C(=C/CO)O[C@@H]2CC(=O)N21)C(=O)OCc1ccccc1	inactive	
COC(=O)[C@H](Cc1ccccc1)NC(=O)[C@H]1/C(=C/CO)O[C@@H]2CC(=O)N21		inhibition [2]: inactive
COC(=O)C(=O)N1CCC[C@@H]1C(=O)N[C@H](Cc1ccccc1)C(=O)OCc1ccccc1		IC50 [3]: 250 µM
COC(=O)[C@H](Cc1ccccc1)NC(=O)[C@@H]1N2C(=O)[C@@H](N)[C@H]2SC1(C)C	inactive	
